From patent US8273340B2, “Methods and compositions for attracting or repelling cockroaches” (The United States of America, as represented by the …, priority 2008, dated 2012)
Marks after values point to notes of the source that are not given here.

Experiments:
[1] = tested on: Male cockroaches (Blattela germanica); test: Y-tube olfactometer bioassay, test compound in mineral oil on filter paper; type: in vivo; details: 0.5% w/v solution in mineral oil; mean of 3 replicates; 65% or more = significantly attractive (*), 35% or less = significantly repellent (**)
Text: The German cockroach (Blattela germanica) is one of the most difficult cockroach species to control in homes and was used to illustrate the invention. […] Since the cockroaches never contact the test sample, their response is strictly to the molecules in the air stream.
(§1) Olfactometer Bioassay: The Y-tube bioassay apparatus was similar to that described by Vander Meer et al. (J. Chem. Ecol., 14: 825-838 (1988)). Compressed air (breathing-air quality) was passed into the two choice arms at 0.2 l/min for a total flow of 0.4 l/min. Flow rates were adjusted and controlled by two flow meters (Omega Engineering, Inc.). All tubing carrying the air was either copper or Teflon. Prior to evaluating treatment samples, a positive standard was put through the bioassay procedure. […] Test samples (10.0 μl) and the solvent blank (mineral oil, 10.0 μl) were applied to filter paper strips (0.3×1.0 cm, Whatman No. 1) and then each was placed into one of the two choice arms. Male cockroaches (Blattela germanica) were prepared for their introduction into the olfactometer by placing them in a Teflon tube (3 cm×0.8 cm) that had one end blocked with a piece of copper mesh screen. The open end of tube was closed with a lightly attached piece of tape. The cockroaches were introduced individually by removing the tape and quickly inserting the Teflon tube into the entrance arm of the olfactometer. […] The initial choice of the cockroach was recorded. The cockroach was removed and the process was repeated 10 times with the same test and blank samples. The 10 choices usually required less than 5 minutes to complete. After each set of 10 cockroaches had made their choice, the olfactometer was rinsed with acetone, dried, and reassembled for the next test. Each sample was retested with the same cockroaches, but with the sample and control in reverse positions. The sum of the results from the two tests represented one replicate. This procedure minimized bias inherent in the apparatus. A null hypothesis of equal numbers of cockroaches in each arm was tested with chi-square analysis. […] Results in-between were neutral.
The diameter of the Y part of the olfactometer provided a close fit for the cockroach, thus keeping it in the center of the walkway.

[2] = tested on: Male cockroaches (Blattela germanica); test: Y-tube olfactometer bioassay of controlled release pellets aged in a fume hood; type: in vivo; details: for Percent Response: mean of 3 replicates; for activity in the olfactometer (in words): charcoal as the absorbent, after one hour in the fume hood
Text: as §1, with “procedure. The standard was initially an attractive food material (grape flavoring concentrate used at 0.33%) and later 0.5% (w/v) methyl tiglate, one of the compounds of the present invention, in white, light mineral oil (Aldrich Chemical Co.).” for “procedure.”
Controlled Release Formulations: Four esters found to be significant cockroach attractants were selected for evaluation in controlled release formulations-developed by BioGuard, Inc. Six controlled release formulations from BioGuard were evaluated in the olfactometer. The attractants were methyl tiglate, butyl hexanoate, propyl propanoate, and butyl heptanoate. The attractants were absorbed to either coconut shell charcoal pellets or potassium substituted crystalline zeolite pellets, and then coated with water soluble methylcellulose. The powdered methyl cellulose was dissolved in 80° C. water until saturation, cooled to approx 25° C., the pellets immersed into the solution for a 30 sec, and removed and rapidly air dried with 30° C. pre-dried air. The end products were pellets (charcoal=2 mm×4 mm dia.; molecular sieve=4 mm×1.5 mm dia.). […] A single pellet was used in place of the filter paper described above. The control side was left blank.

[3] = Release rate of attractants from sustained release delivery systems; type: physicochemical
Text: Several secondary release rate control systems were developed. The first was a sachet that can contain the above polymer releasing system. This sachet can be either polyvinylidine chloride (PvdC) barrier film (e.g., Saranex™) enclosed in a thermally sealed metalized polyethylene container to eliminate release of active compounds, or a metalized polyethylene sachet with a removable seal that covers a vapor diffusion controlling orifice which when removed begins the release process from the internal polymer/carrier, or metalized polyethylene sachet which contains a small vial with a vapor controlling orifice. In the case of the Saranex™ sachet, the actual porosity of the Saranex™ control release is based on type of PVdC and thickness of the film. In the case of the metalized polyethylene sachet and internal polymer/carrier, a specific orifice size controlled the rate of diffusion of the active from the device, as shown in FIG. 4. An additional means of containing and reducing the release of the liquid active compounds and providing a solid support for use in the above delivery system involved sorbing the active compounds into an inert absorbent such as Membrana GmbH's expanded microporous polyolefin Accurel® MP100 which are granular or pelletized polyethylenes that have 10-50 μm air pockets throughout and can contain up to 90% of their volume in active compounds . MP100 was easily loaded with 80% by wt active ingredient due to its porosity. […] Thus, placement into the metalized polyethylene sachet with its diffusion regulating orifice was required.
Active compounds (1 gm active in Accurel® MP100) were sealed within the metalized polyethylene sachet, and a 0.5 mm hole placed into the film, and sealed until use with a metalized tape. Release rates for propyl propanoate, methyl tiglate, and butyl hexanoate were calculated at 15.5, 11.4, and 4.8 mg/day, respectively. Longevity of this system was calculated to be 64, 87, and 208 days, respectively.
Release rates for the thermoset urethane (Flexane® 80P) and synthetic rubbers systems ranged from 0.055 to 0.2 mg/cm^2/day, depending on durometer/hardness that is a measure of polymer crosslinking. Best results were obtained at durometer/hardness levels above D30. Release rates for the Saranex system without the release control provided by the metalized polyethylene and diffusion control orifice were 187, 236, and 7 mg/day for propyl propanoate, methyl tiglate, and butyl hexanoate, respectively.

[4] = tested on: German roaches (B. germanica); test: Two-harborage arena bioassay of sustained release polymer formulations; type: in vivo; details: formulated with Santoprene; counted after 24 hours
Text: Evaluation of sustained release formulations: Three cockroach attractants (methyl tiglate, butyl heptanoate, and propyl proprionate) were formulated in one or more polymer formulations (Urethane, Pellethane, Santoprene, and/or Polyethylene) as indicated in Table 4.A sweater box (1.5×2.0×0.5 ft) provided the test arena. The sides of the arena were coated with a blend of mineral oil and Vaseline petroleum jelly. The tops of two 8 oz paper ice cream cups were tapped to the arena floor with masking tape and, prior to the addition of the test cockroaches, inverted cups without holes were fixed to the tapped lids. Twenty-five laboratory reared late stage nymphs or adult male German roaches (B. germanica), starved for 72 hrs, were added to the arena and allowed to calm down (ca. 1 hour). The starting inverted ice cream cups were carefully removed and each ice cream cup top was then supplied with a water tube (1.5 ml scintillation vial with water and stoppered with cotton), one lab chew food pellet, and either a test attractant polymer formulation or the corresponding polymer blank control. […] The cups were oriented so that the holes were facing each other. The number of roaches that sought harborage in the cups was counted after 24 hours by plugging the entrance holes with cotton, the roaches inside euthanized, and the numbers in each cup counted.

[5] = tested on: cockroach; test: Bioassays for cockroach attraction of attractants sorbed into thermoplastic polymers; type: in vivo
Text: To alleviate the reactivity with the carrier polymers, we attempted to load active compounds into a series of thermoplastic polymers including urethanes and synthetic rubbers, based on the behavior of the active compounds as plasticizers. […] Propyl propanoate, methyl hexanoate, and methyl tiglate were loaded into a series of thermoplastic granulated feed materials, including 4-(1,1,3,3-tetramethylbutyl) with ethylene-5-ethylidenebicyclo[2.2.1]hept-2-ene-propene thermoplastic synthetic rubber (Santopren™ 203-40). Santoprene™ is a thermoplastic elastomer (TPE that is a mixture of in-situ cross linking of EPDM rubber and polypropylene compounds). Because of the longer life of Santopren™ in both extreme hot and cold environments, it is often preferred over the use of rubber. Pellethane™ 2102-55D is a polyester polycaprolactone polyurethane. Methyl hexanoate and methyl tiglate were sorbed using heat and pressure (60° C., 40 psi, 30 min) into the Santoprene® and were effective in bioassays for cockroach attraction. […] Loading rates of active compounds into the Santoprene®, using slightly elevated temperature (60° C.) and 40 psi pressure, were 8-12% by wt for the two compounds.

[6] = Charcoal absorbent, methylcellulose coated pellet, aged 1 hour in fume hood
[7] = charcoal controlled release formulation, aged 24 hours in fume hood
[8] = charcoal controlled release formulation, aged 48 hours in fume hood

Q: With `CCCOC(C)=O` [Propyl acetate] as the molecule, how does the “Percent Response” value [1] read?
A: The value was 40.0%.

Q: Which “Percent Response” value [1] does the source give for `CCCCOC(=O)CCC` [Butyl Butanoate] here?
A: Its value is 35.0** %.

Q: Which “Percent Response” value [1] does the source give for `CCCCCCCCC(=O)OCCCC` [Butyl Nonanoate] here?
A: The value was 40.0%.

Q: With `CCCCOC(=O)CCCC` [Butyl Pentanoate] as the molecule, how does the “Percent Response” value [1] read?
A: The value was 50.0%.

Q: With `CCCCC(=O)OC` [Methyl Pentanoate] as the molecule, how does the “Percent Response” value [1] read?
A: Its value is 50.0%.

Q: For `CCCCCCCC(=O)OCCCC` [Butyl Octanoate], which “Percent Response” value [1] is on record?
A: The value was 55.0%.

Q: With `CCC(=O)OC` [Methyl Propanoate] as the molecule, how does the “Percent Response” value [1] read?
A: Its value is 60.0%.

Q: With `CCCCCCC(=O)OCC` [Ethyl Heptanoate] as the molecule, how does the “Percent Response” value [1] read?
A: The value was 40.0%.

Q: With `CCCCCCCCCC(=O)OC` [Methyl Decanoate] as the molecule, how does the “Percent Response” value [1] read?
A: Its value is 55.0%.

Q: Which “Percent Response” value [1] does the source give for `CCCCOC(=O)CC` [Butyl Propanoate] here?
A: Its value is 15.0** %.

Q: Which “Percent Response” value [1] does the source give for `CCCCCCC(=O)OCCCC` [Butyl Heptanoate] here?
A: Its value is 80.0* %.

Q: What about the “Percent Response” value [2, 6] of the same molecule?
A: Its value is 70.0%.

Q: And the “activity in the olfactometer (in words)” value [2]?
A: The value was “significantly active”.

Q: What about the “Percent Response” value [2, 7] of the same molecule?
A: Its value is 61.6%.

Q: What about the “Percent Response” value [2, 8] of the same molecule?
A: Its value is 58.3%.

Q: With `CCCCCCCCCCCC(=O)OC` [Methyl Dodecanoate] as the molecule, how does the “Percent Response” value [1] read?
A: The value was 45.0%.

Q: With `CCCCCCOC(=O)CCC` [Hexyl Butanoate] as the molecule, how does the “Percent Response” value [1] read?
A: Its value is 35.0** %.

Q: Which “Percent Response” value [1] does the source give for `CCCCC(=O)OCC` [Ethyl Pentanoate] here?
A: Its value is 65.0* %.

Q: Which “Percent Response” value [1] does the source give for `CCCC(=O)OCC` [Ethyl Butyrate] here?
A: Its value is 63.3%.

Q: Which “Percent Response” value [1] does the source give for `CCCC(=O)OC` [Methyl Butanoate] here?
A: The value was 55.0%.

Q: For `CCCCCC(=O)OCCCC` [Butyl Hexanoate], which “Percent Response” value [1] is on record?
A: The value was 75.0* %.

Q: What about the “Percent Response” value [2, 6] of the same molecule?
A: Its value is 82.0%.

Q: And the “activity in the olfactometer (in words)” value [2]?
A: The value was “significantly active”.

Q: And the “Percent Response” value [2, 7]?
A: Its value is 70.0%.

Q: What about the “Percent Response” value [2, 8] of the same molecule?
A: The value was 61.6%.

Q: What about the “Longevity of the release system” value ([3]; 1 gm active in Accurel MP100 in metalized polyethylene sachet with 0.5 mm hole) of the same molecule?
A: Its value is 208 days.

Q: What about the Release rate ([3]; 1 gm active in Accurel MP100 in metalized polyethylene sachet with 0.5 mm hole, FIG. 3) of the same molecule?
A: Its Release rate is 4.8 mg/day.

Q: And the Release rate ([3]; Saranex system without metalized polyethylene and diffusion control orifice)?
A: The Release rate was 7 mg/day.

Q: And the “attraction to treatment harborage versus polymer blank control (in words)” value [4]?
A: The value was “significant attraction and subsequent aggregation”.

Q: For `CCCCOC(C)=O` [Butyl Acetate], which “Percent Response” value [1] is on record?
A: Its value is 45.0%.

Q: With `CCCCCCC(=O)OC` [Methyl Heptanoate] as the molecule, how does the “Percent Response” value [1] read?
A: The value was 50.0%.

Q: Which “Percent Response” value [1] does the source give for `CCCCCCCC(=O)OCC` [Ethyl Octanoate] here?
A: Its value is 50.0%.

Q: For `CCCCCCCCC(=O)OC` [Methyl Nonanoate], which “Percent Response” value [1] is on record?
A: Its value is 45.0%.

Q: For `CCOC(=O)CC` [Ethyl Propanoate], which “Percent Response” value [1] is on record?
A: Its value is 65.0* %.

Q: Which results are given for `CCCCCC(=O)OC` [Methyl Hexanoate]?
A: Percent Response [1]: 45.0%; effect in bioassays for cockroach attraction (in words) ([5]; loaded into Dow Pellethane): worked less well; effect in bioassays for cockroach attraction (in words) ([5]; sorbed into Santoprene (60° C., 40 psi, 30 min)): effective

Q: With `CCCOC(=O)CCC` [Propyl Butanoate] as the molecule, how does the “Percent Response” value [1] read?
A: The value was 35.0** %.

Q: For `CCCCCC(=O)OCC` [Ethyl Hexanoate], which “Percent Response” value [1] is on record?
A: Its value is 75.0* %.

Q: For `CCCCCCCCCCC(=O)OC` [Methyl Undecanoate], which “Percent Response” value [1] is on record?
A: The value was 45.0%.
